The results in this text go back to EP2522332A1, “Use of resveratrol and magnesium-ascorbyl-phosphate” (DSM IP Assets B.V., priority 2011, dated 2012).

SMILES strings stand for the structures. Like-named read-outs stand apart in the source and are kept apart here.

The assay has as its system SILV. As to the kind of experiment: Assessment of gene modulation in normal human epidermal melanocytes (NHEM), RT-qPCR / PCR array. It counts as cell-based. The following applies: for activation at 1000 µg/mL: Homo sapiens, Melanocyte. How it is done: Normal human epidermal melanocytes were cultivated for 24 hours. […] Cells were cultivated for additional 72 hours. All experimental conditions were performed in triplicate.
At the end of the cultivation, the cells were harvested and washed with phosphate buffered saline (PBS) solution and immediately frozen at -80°C. The expression of selected markers was analyzed using RT-qPCR method on mRNA extracted from cells layer for each treatment condition. The differential expression analysis was performed by PCR arrays of the screening format "mQPA H-Melanocyte-64", which focuses on 64 genes selected for their importance in pigmentation and melanocyte biology.
Total RNA was extracted from each sample using TRI-Reagent®. The amount and quality of the RNA was evaluated using a lab-on-a-chip Bioanalyzer (Agilent technologies). Potential contaminants traces of DNA were removed […] The incorporation of fluorescence in amplified DNA was measured continuously during the PCR cycles. […] The value selected for RE calculations is the "output point" (Ct) of the fluorescence curve. For a given marker, the highest is the cycle number; the lowest, is the mRNA quantity. The RE value is expressed in arbitrary units (AU) according to the equation: (((1)/(2)))^NC x 10^6 [formula]
Where NC is the number of cycles.
(In general: Real-time PCR tracks product formation cycle by cycle.)

As for `Oc1ccc(C=Cc2cc(O)cc(O)c2)cc1` [Resveratrol, 3,4',5 trihydroxystilbene], the “modulation of the gene SILV” value (NHEM cells, resveratrol alone 5 micrograms/ml, 72 hours) is on record as “did not modulate”. Take `O=C1O[C@H]([C@@H](O)CO)C(O)=C1OP(=O)(O)O` [magnesium-ascorbyl-phosphate, magnesium-L-ascorbyl-2-phosphate]: the activation at 1000 µg/mL runs as follows: (NHEM cells treated 72 hours, resveratrol 5 µg/ml, magnesium-ascorbyl-phosphate 1 mg/ml, combination 5 µg/ml + 1 mg/ml, versus control, read-out: SILV (expression level of the gene SILV)) 25%; (NHEM cells, magnesium ascorbyl phosphate 1 mg/ml, 72 hours, read-out: induction of the SILV gene) 25%.
